From patent US12343326B2, “Psychoactive medicines and their use for treating psychiatric and neurological conditions and disorders” (Transcend Therapeutics, Inc., priority 2021, dated 2025)

How the values were obtained:
Assay in all cases: β-arrestin based GPCR screen (PathHunter / GPCRmax), agonist mode
Assay type in all cases: cell-based
Set-up in all cases: host or cells: PathHunter cell lines
168 GPCRs [1] = biological target: 168 GPCRs (Homo sapiens, UniProt Q13324)
Procedure: (§1) For agonist determination, cells were incubated with sample to induce response. […] Vehicle concentration was 1%.

168 GPCRs [2] = biological target: 168 GPCRs (Homo sapiens, UniProt P35367)
Procedure: as §1

168 GPCRs [3] = biological target: 168 GPCRs (Homo sapiens, UniProt P32246); settings: CCR1, Agonist
Procedure: as §1

168 GPCRs [4] = biological target: 168 GPCRs (Homo sapiens, UniProt P51681); settings: CCR5, CCR5, Agonist
Procedure: as §1

168 GPCRs [5] = biological target: 168 GPCRs (Homo sapiens, UniProt P30556); settings: AGTR1, Agonist
Procedure: as §1

168 GPCRs [6] = biological target: 168 GPCRs (Homo sapiens, UniProt P47900)
Procedure: as §1

168 GPCRs [7] = biological target: 168 GPCRs (Homo sapiens, UniProt P49146); settings: NPY2R
Procedure: as §1

168 GPCRs [8] = biological target: 168 GPCRs (Homo sapiens, UniProt P32238); settings: CCKAR, Agonist
Procedure: as §1

168 GPCRs [9] = biological target: T1, 168 GPCRs (Homo sapiens, UniProt Q96RI0)
T1 sequence (Q96RI0 18-385): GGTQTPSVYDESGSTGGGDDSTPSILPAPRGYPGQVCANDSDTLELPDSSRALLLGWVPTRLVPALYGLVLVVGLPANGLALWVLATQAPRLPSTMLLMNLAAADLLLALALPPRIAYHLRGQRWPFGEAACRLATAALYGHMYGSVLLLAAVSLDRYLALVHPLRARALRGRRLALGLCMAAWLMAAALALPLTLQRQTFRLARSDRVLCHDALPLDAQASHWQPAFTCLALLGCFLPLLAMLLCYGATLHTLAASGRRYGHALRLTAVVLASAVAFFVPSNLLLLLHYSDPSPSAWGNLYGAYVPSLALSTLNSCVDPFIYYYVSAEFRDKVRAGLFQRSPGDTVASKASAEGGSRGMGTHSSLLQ
Procedure: as §1

168 GPCRs [10] = biological target: 168 GPCRs (Homo sapiens, UniProt P43116)
Procedure: as §1

168 GPCRs [11] = biological target: 168 GPCRs (Homo sapiens, UniProt P50391)
Procedure: as §1

168 GPCRs [12] = biological target: 168 GPCRs (Homo sapiens, UniProt O00574)
Procedure: as §1

168 GPCRs [13] = biological target: 168 GPCRs (Homo sapiens, UniProt P41968); settings: MC3R
Procedure: as §1

168 GPCRs [14] = biological target: 168 GPCRs (Homo sapiens, UniProt P41146)
Procedure: as §1

168 GPCRs [15] = biological target: 168 GPCRs (Homo sapiens, UniProt P51685); settings: CCR8, Agonist
Procedure: as §1

168 GPCRs [16] = biological target: 168 GPCRs (Homo sapiens, UniProt P35346)
Procedure: as §1

168 GPCRs [17] = biological target: 168 GPCRs (Homo sapiens, UniProt P28222); settings: HTR1B
Procedure: as §1

168 GPCRs [18] = biological target: 168 GPCRs (Homo sapiens, UniProt P30989)
Procedure: as §1

168 GPCRs [19] = biological target: 168 GPCRs (Homo sapiens, UniProt P61073)
Procedure: as §1

168 GPCRs [20] = biological target: 168 GPCRs (Homo sapiens, UniProt P30411); settings: BDKRB2; Agonist; 1 uM
Procedure: as §1

168 GPCRs (Homo sapiens, UniProt P61073), sequence (P61073 whole entry): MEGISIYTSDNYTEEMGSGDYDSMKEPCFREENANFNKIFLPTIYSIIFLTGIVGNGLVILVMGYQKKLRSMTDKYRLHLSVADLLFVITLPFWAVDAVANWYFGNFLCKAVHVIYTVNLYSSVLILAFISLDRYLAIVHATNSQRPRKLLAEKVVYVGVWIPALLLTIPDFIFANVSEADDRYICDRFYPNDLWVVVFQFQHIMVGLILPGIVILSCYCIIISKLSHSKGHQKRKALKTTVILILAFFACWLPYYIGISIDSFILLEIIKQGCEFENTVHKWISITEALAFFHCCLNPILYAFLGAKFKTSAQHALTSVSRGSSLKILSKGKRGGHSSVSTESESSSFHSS
168 GPCRs (Homo sapiens, UniProt P47900), sequence (P47900 whole entry): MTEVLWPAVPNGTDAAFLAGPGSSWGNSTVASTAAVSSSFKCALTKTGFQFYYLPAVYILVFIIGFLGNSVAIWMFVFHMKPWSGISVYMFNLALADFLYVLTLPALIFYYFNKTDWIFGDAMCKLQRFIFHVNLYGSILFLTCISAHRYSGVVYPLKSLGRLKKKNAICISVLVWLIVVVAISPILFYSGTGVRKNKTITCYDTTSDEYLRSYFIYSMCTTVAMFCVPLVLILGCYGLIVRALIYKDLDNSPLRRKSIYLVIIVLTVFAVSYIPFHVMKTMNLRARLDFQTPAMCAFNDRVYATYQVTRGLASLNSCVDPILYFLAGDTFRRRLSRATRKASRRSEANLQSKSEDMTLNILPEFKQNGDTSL
168 GPCRs (Homo sapiens, UniProt P41968), sequence (P41968 whole entry): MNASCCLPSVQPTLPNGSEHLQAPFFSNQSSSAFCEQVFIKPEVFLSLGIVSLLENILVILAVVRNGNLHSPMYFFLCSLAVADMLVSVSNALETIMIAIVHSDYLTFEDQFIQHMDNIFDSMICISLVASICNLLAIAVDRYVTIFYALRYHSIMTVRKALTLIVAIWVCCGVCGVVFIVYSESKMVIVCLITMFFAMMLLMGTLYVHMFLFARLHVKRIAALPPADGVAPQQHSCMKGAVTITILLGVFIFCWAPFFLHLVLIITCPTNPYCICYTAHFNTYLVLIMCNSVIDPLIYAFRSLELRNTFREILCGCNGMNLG
168 GPCRs (Homo sapiens, UniProt P41146), sequence (P41146 whole entry): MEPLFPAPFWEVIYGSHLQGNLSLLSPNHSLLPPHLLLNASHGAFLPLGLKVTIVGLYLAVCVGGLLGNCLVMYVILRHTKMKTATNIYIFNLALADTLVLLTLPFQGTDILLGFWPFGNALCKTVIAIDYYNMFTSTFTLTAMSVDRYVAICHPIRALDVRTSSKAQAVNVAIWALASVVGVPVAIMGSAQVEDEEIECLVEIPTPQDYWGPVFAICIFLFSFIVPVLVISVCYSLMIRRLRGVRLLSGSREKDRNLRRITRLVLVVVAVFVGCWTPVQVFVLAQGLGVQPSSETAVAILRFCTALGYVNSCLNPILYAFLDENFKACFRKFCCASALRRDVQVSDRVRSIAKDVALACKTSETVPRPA
168 GPCRs (Homo sapiens, UniProt P49146), sequence (P49146 whole entry): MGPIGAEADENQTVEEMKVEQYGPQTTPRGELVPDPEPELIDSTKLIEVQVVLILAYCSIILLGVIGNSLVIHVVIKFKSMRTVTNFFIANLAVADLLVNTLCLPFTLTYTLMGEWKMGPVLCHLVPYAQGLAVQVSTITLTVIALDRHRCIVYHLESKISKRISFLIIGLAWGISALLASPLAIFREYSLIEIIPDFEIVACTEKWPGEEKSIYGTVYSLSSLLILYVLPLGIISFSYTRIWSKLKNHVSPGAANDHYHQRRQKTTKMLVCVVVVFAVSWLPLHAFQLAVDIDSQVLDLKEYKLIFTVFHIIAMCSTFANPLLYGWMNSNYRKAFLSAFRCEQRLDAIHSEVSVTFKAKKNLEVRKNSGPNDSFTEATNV
168 GPCRs (Homo sapiens, UniProt P51681), sequence (P51681 whole entry): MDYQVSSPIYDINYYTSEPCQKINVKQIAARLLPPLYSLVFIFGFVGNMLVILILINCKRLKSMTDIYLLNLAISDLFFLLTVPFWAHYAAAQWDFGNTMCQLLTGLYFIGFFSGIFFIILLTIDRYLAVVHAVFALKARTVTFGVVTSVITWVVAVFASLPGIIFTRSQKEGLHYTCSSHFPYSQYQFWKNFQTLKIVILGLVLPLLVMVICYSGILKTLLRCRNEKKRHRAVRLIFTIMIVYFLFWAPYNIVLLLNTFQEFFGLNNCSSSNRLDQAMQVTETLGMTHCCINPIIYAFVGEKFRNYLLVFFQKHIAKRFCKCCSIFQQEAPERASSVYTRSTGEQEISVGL
168 GPCRs (Homo sapiens, UniProt P51685), sequence (P51685 whole entry): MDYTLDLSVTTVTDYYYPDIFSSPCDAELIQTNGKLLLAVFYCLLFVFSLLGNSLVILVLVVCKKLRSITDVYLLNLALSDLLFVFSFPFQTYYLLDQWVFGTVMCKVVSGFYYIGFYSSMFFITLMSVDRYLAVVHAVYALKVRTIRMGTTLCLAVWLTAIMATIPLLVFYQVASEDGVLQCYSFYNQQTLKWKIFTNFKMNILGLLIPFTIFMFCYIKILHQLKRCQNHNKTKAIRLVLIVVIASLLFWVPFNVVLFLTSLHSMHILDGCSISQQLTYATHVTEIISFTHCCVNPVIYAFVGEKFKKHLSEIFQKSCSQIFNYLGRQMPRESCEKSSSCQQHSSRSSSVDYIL
168 GPCRs (Homo sapiens, UniProt P35367), sequence (P35367 whole entry): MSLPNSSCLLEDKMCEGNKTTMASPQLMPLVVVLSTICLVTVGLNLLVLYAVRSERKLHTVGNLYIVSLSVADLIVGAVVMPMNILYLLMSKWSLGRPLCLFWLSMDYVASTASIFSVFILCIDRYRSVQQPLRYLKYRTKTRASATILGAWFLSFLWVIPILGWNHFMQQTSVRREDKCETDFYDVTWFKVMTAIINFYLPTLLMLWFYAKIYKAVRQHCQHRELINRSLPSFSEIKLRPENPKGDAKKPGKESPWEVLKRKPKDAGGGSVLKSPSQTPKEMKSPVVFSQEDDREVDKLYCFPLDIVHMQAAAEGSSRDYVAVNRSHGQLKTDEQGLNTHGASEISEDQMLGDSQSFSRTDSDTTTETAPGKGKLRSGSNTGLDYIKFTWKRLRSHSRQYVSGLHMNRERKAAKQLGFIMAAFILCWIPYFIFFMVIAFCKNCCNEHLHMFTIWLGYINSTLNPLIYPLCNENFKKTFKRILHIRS
168 GPCRs (Homo sapiens, UniProt P32238), sequence (P32238 whole entry): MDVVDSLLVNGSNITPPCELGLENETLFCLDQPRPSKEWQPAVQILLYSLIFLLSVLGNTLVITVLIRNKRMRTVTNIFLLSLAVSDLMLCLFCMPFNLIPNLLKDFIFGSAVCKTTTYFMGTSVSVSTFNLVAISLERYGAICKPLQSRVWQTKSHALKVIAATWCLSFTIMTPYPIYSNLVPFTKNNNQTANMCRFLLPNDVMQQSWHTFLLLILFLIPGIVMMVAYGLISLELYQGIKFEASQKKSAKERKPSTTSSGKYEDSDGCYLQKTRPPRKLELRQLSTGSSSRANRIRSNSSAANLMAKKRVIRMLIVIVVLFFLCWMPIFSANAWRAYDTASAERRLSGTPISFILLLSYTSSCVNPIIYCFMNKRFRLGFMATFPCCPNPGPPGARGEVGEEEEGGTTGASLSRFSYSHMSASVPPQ
168 GPCRs (Homo sapiens, UniProt P35346), sequence (P35346 whole entry): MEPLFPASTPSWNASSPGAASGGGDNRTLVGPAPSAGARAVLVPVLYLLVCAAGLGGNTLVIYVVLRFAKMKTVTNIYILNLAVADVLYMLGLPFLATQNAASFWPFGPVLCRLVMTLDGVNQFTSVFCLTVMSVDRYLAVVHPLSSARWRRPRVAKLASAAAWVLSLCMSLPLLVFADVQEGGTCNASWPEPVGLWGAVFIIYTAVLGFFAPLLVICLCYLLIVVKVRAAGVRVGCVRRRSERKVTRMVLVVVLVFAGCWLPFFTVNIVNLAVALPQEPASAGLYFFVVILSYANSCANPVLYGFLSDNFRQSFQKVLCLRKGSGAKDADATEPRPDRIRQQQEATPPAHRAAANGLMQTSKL
168 GPCRs (Homo sapiens, UniProt P50391), sequence (P50391 whole entry): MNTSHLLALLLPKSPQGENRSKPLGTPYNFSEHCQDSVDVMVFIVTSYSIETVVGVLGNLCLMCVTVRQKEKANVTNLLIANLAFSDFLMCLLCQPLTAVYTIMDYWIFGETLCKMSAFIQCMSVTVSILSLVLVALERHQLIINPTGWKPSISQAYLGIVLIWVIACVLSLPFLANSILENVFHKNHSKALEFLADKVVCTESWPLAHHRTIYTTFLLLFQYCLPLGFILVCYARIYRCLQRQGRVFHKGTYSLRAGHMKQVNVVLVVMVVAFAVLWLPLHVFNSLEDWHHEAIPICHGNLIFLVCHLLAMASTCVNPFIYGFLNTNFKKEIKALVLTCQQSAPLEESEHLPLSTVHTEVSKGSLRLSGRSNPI
168 GPCRs (Homo sapiens, UniProt O00574), sequence (O00574 whole entry): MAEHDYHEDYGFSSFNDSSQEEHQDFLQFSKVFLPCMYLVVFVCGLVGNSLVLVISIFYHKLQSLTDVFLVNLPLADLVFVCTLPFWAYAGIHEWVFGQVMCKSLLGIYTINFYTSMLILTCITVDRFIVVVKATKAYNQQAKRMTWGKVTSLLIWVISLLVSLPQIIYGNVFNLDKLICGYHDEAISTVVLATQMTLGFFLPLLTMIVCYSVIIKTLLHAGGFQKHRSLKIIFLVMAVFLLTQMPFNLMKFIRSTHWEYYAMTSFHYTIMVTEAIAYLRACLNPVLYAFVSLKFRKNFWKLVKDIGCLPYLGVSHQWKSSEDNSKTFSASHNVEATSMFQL
168 GPCRs (Homo sapiens, UniProt P43116), sequence (P43116 whole entry): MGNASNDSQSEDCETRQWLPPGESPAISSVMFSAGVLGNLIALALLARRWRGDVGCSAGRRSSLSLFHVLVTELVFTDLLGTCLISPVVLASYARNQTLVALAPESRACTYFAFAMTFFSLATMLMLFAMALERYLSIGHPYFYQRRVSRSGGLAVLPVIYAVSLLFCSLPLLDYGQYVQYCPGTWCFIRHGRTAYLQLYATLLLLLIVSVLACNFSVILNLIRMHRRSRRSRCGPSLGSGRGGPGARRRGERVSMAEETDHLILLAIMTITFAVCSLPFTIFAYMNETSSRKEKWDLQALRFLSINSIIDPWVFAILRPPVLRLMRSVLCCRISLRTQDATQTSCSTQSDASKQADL

For `CNC(C)C(=O)c1ccc2c(c1)OCO2` (stereo not drawn) [methylone, 3,4-methylenedioxy-N-methylcathinone], which activity at 10 µM (168 GPCRs [1]; CRHR2, Agonist mode, 10 uM) is on record?
The activity at 10 µM was 0.9%.

And the activity at 1 µM (168 GPCRs [1]; CRHR2, Agonist, 1 uM)?
The activity at 1 µM was 0.9%.

What about the activity at 10 µM (168 GPCRs [2]; HRH1, Agonist mode, 10 uM) of the same molecule?
Its activity at 10 µM is 2.5%.

And the activity at 1 µM (168 GPCRs [2]; HRH1, Agonist, 1 uM)?
Its activity at 1 µM is 3%.

And the activity at 1 µM (168 GPCRs [3]; 1 uM)?
Its activity at 1 µM is -2.6%.

And the activity at 10 µM (168 GPCRs [3]; 10 uM)?
The activity at 10 µM was 3.6%.

And the activity at 1 µM (168 GPCRs [4]; 1 uM)?
The activity at 1 µM was -0.1%.

What about the activity at 10 µM (168 GPCRs [4]; 10 uM) of the same molecule?
Its activity at 10 µM is 0.3%.

What about the activity at 1 µM (168 GPCRs [5]; 1 uM) of the same molecule?
The activity at 1 µM was -2.8%.

What about the activity at 10 µM (168 GPCRs [5]; 10 uM) of the same molecule?
The activity at 10 µM was -1%.

What about the activity at 10 µM (168 GPCRs [6]; P2RY1, Agonist mode, 10 uM) of the same molecule?
Its activity at 10 µM is -4.1%.

And the activity at 1 µM (168 GPCRs [6]; P2RY1, Agonist, 1 uM)?
Its activity at 1 µM is 2.2%.

What about the activity at 10 µM (168 GPCRs [7]; Agonist mode, 10 uM) of the same molecule?
Its activity at 10 µM is 0.2%.

And the activity at 1 µM (168 GPCRs [7]; Agonist, 1 uM)?
The activity at 1 µM was -0.1%.

What about the activity at 1 µM (168 GPCRs [8]; 1 uM) of the same molecule?
Its activity at 1 µM is 0.1%.

What about the activity at 10 µM (168 GPCRs [8]; 10 uM) of the same molecule?
Its activity at 10 µM is 0.3%.

And the activity at 10 µM (168 GPCRs [9]; F2RL3, Agonist mode, 10 uM)?
The activity at 10 µM was 7%.

And the activity at 1 µM (168 GPCRs [9]; F2RL3, Agonist, 1 uM)?
The activity at 1 µM was 4.3%.

And the activity at 10 µM (168 GPCRs [10]; PTGER2, Agonist mode, 10 uM)?
The activity at 10 µM was -3.1%.

What about the activity at 1 µM (168 GPCRs [10]; PTGER2, Agonist, 1 uM) of the same molecule?
The activity at 1 µM was -1.4%.

What about the activity at 10 µM (168 GPCRs [11]; PPYR1, Agonist mode, 10 uM) of the same molecule?
Its activity at 10 µM is -1.2%.

What about the activity at 1 µM (168 GPCRs [11]; PPYR1, Agonist, 1 uM) of the same molecule?
Its activity at 1 µM is -1.7%.

What about the activity at 10 µM (168 GPCRs [12]; CXCR6, Agonist mode, 10 uM) of the same molecule?
Its activity at 10 µM is 0.3%.

And the activity at 1 µM (168 GPCRs [12]; CXCR6, Agonist, 1 uM)?
The activity at 1 µM was 0.3%.

And the activity at 10 µM (168 GPCRs [13]; Agonist mode, 10 uM)?
Its activity at 10 µM is -1.8%.

What about the activity at 1 µM (168 GPCRs [13]; Agonist, 1 uM) of the same molecule?
The activity at 1 µM was -3.2%.

And the activity at 10 µM (168 GPCRs [14]; OPRL1, Agonist mode, 10 uM)?
Its activity at 10 µM is -2.3%.

What about the activity at 1 µM (168 GPCRs [14]; OPRL1, Agonist, 1 uM) of the same molecule?
Its activity at 1 µM is -1.6%.

And the activity at 1 µM (168 GPCRs [15]; 1 uM)?
The activity at 1 µM was -0.2%.

And the activity at 10 µM (168 GPCRs [15]; 10 uM)?
Its activity at 10 µM is -0.6%.

And the activity at 10 µM (168 GPCRs [16]; SSTR5, Agonist mode, 10 uM)?
Its activity at 10 µM is -1.3%.

What about the activity at 1 µM (168 GPCRs [16]; SSTR5, Agonist, 1 uM) of the same molecule?
The activity at 1 µM was -2.4%.

And the activity at 10 µM (168 GPCRs [17]; Agonist mode, 10 uM)?
Its activity at 10 µM is 6.7%.

And the activity at 1 µM (168 GPCRs [17]; Agonist, 1 uM)?
Its activity at 1 µM is 3.3%.

What about the activity at 10 µM (168 GPCRs [18]; NTSR1, Agonist mode, 10 uM) of the same molecule?
The activity at 10 µM was -3.5%.

And the activity at 1 µM (168 GPCRs [18]; NTSR1, Agonist, 1 uM)?
The activity at 1 µM was -4.7%.

And the activity at 10 µM (168 GPCRs [19]; CXCR4, Agonist mode, 10 uM)?
The activity at 10 µM was 7%.

And the activity at 1 µM (168 GPCRs [19]; CXCR4, Agonist, 1 uM)?
The activity at 1 µM was -4%.

And the activity at 1 µM (168 GPCRs [20])?
The activity at 1 µM was -3.6%.
